# Assay results from patent US20260130372A1 (SYNGENTA CROP PROTECTION AG, priority 2022, published 2026).
# How the values were obtained:
# [1] = test system: Botrytis cinerea; experiment: liquid culture assay, 96well plate, photometric growth inhibition; type: cell-based
# Procedure: (§1) Streptimidone (CAS: 738-72-7) was purchased from a commercial vendor. A stock solution for streptimidone was produced in DMSO (max. 10 mg/ml). Malonomicin was produced according to Law et al, 2018 (Nature Catalys is |VOL 1|December 2018|977-984). A stock solution of malonomicin was produced in water plus 0.025% Tween20.
# Assays to test efficacy of mixtures of streptimidone in combination with malonomicin on the control of fungal pathogens in a liquid culture assay were designed for a 96well plate.
# Table1: outline of 96well testplate including concentration of compounds per well. The upper number in the cell indicates malonomicin concentration (ppm), the lower number streptimidone concentration (ppm). Column (1) holds a dilution series of streptimidone, row (H) holds a dilution series of malonomicin, column (12) holds cells representing untreated check.
# The 96 well plate design allows to compare disease control of the mixture with disease control of the respective single compound at the same rate.
# A master plate with 10× concentrated solution of the compound stock solutions diluted in water plus 0.025% Tween20 was prepared. The concentration of DMSO (from the stock of streptimidone) and Tween20 was kept constant in all cells of the master plate. 10 μl was transferred from the master plate to a 96well test plate. The nutrient broth containing the fungal spores/mycelia fragments was then added to the test plate to give an end concentration of 1× for the tested compounds (as outlined in table 1). The test plates were incubated in the dark at […] and 96% rh. The inhibition of fungal growth was determined photometrically after ca 3 days, and percent fungal growth reduction relative to the untreated check was calculated. Efficacy of the mixtures was tested on a fungal species: Botrytis cinerea (EPPO code: BOTRCI)
# Conidia of the fungus from cryogenic storage were directly mixed into nutrient broth (Vogel's minimal media).
# [2] = test system: Puccinia recondita; experiment: leaf disc assay on wheat leaf segments, curative spray timing; type: in vivo
# Procedure: as §1, with “1|DECEMBER” for “1|December”
# (§2) Assays to test efficacy of mixtures of streptimidone in combination with malonomicin on the control of fungal pathogens in a leaf disc assay were designed for two 24well plates.
# (§3) Table 5 and table 6: Outline of 24well testplate(1) and testplate(2) including concentration of compounds sprayed per well. The upper number in the cell indicates streptimidone concentration (ppm), the lower number malonomicin concentration (ppm). Column (1) holds a dilution series of streptimidone, row (2-D) holds a dilution series of malonomicin. Well 2-D-(1) represents an untreated check. This design was applied for tests including Puccinia recondita (EPPO code: PUCCRE) with preventive and curative spray timing.
# (§4) A first set of master plates with 1× concentrated spray solution of the streptimidone stock diluted in water with concentrations according to table 5 or table 6, respectively, was prepared. Each well contained 2% DMSO and 0.025% Tween20. Accordingly, a second set of master plates with 1× concentrated malonomicin stock diluted in water was prepared. Each well of the second set contained 0.025% Tween20. Leaf segments placed on agar in 24well plates are sprayed with 8 ul of solution from the master plate containing streptimidone and the leaf segments were let to dry, followed 2 hours later by 8 ul of solution from the master plate containing malonomicin. After second sprays have dried, leaf segments are infected with fungal spores to obtrain a preventive application timing. Alternativeley, leaf segments infected one day before spray of the compounds are used, resulting in a curative spray timing. In addition, several plates were produced where leaf segments were sprayed 2× in absence of test compound (with only DMSO and Tween20), representing the untreated check samples. For each leaf segment percent leaf coverage of disease symptoms was assessed. Percent leaf coverage reduction relative to the untreated check was calculated. Efficacy of the mixtures was tested in duplicate and on different fungal species. Reported efficacy values are the average of two replicate results.
# Puccinia recondita (EPPO Code: PUCCRE) with Curative Spray Timing.
# Wheat (cultivar Kanzler) leaf segments are placed on agar in multiwell plates (24-well format). The leaf disks are then inoculated with a spore suspension of the fungus. One day after inoculation the test solution is sprayed (8 ul per well). After appropriate incubation the activity of a compound is assessed 8 dpi (days after inoculation) as curative fungicidal activity
# [3] = test system: Puccinia recondita; experiment: leaf disc assay on wheat leaf segments, preventive spray timing; type: in vivo
# Procedure: as §1, with “1|DECEMBER” for “1|December”
# as §2, §3, §4
# Puccinia recondita (EPPO Code: PUCCRE) with Preventive Spray Timing.
# Wheat (cultivar Kanzler) leaf segments are placed on agar in multiwell plates (24-well format) and sprayed with test solutions (8 ul per well). After drying, the leaf disks are inoculated with a spore suspension of the fungus. After appropriate incubation the activity of a compound is assessed 8 dpi (days after inoculation) as preventive fungicidal activity.
smiles,measurement,setting,value
"NC[C@@H]1NC(=O)C(C(=O)CC(NC(=O)[C@@H](N)CO)(C(=O)O)C(=O)O)=C1O [malonomicin, {[(2S)-2-amino-3-hydroxypropanoyl]amino}{2-[(5S)-5-(aminomethyl)-4-hydroxy-2-oxo-2,5-dihydro-1H-pyrrol-3-yl]-2-oxoethyl}malonic acid]",control of fungal growth,"[1]; well H(2), malonomicin 1000 ppm solo",70%
same,control of fungal growth,"[1]; well H(3), malonomicin 500 ppm solo",70%
same,control of fungal growth,"[1]; well H(4), malonomicin 250 ppm solo",70%
same,control of fungal growth,"[1]; well H(5), malonomicin 125 ppm solo",70%
same,control of fungal growth,"[1]; well H(6), malonomicin 62.5 ppm solo",70%
same,control of fungal growth,"[1]; well H(7), malonomicin 31.25 ppm solo",50%
same,control of fungal growth,"[1]; well H(8), malonomicin 15.63 ppm solo",0%
same,control of fungal growth,"[1]; well H(9), malonomicin 7.81 ppm solo",0%
same,control of fungal growth,"[1]; well H(10), malonomicin 3.00 ppm solo",0%
same,control of fungal growth,"[1]; well H(11), malonomicin 1.00 ppm solo",0%
same,control of fungal growth (reduction of symptoms on the leaf segment),"[2]; curative, well 2-D(2), malonomicin 200 ppm solo",100%
same,control of fungal growth (reduction of symptoms on the leaf segment),"[2]; curative, well 2-D(3), malonomicin 20 ppm solo",100%
same,control of fungal growth (reduction of symptoms on the leaf segment),"[2]; curative, well 2-D(4), malonomicin 6.67 ppm solo",100%
same,control of fungal growth (reduction of symptoms on the leaf segment),"[2]; curative, well 2-D(5), malonomicin 2.22 ppm solo",70%
same,control of fungal growth (reduction of symptoms on the leaf segment),"[2]; curative, well 2-D(6), malonomicin 0.74 ppm solo",35%
same,control of fungal growth (reduction of symptoms on the leaf segment),"[3]; well 2-D(2), malonomicin 200 ppm solo",100%
same,control of fungal growth (reduction of symptoms on the leaf segment),"[3]; well 2-D(3), malonomicin 20 ppm solo",100%
same,control of fungal growth (reduction of symptoms on the leaf segment),"[3]; well 2-D(4), malonomicin 6.67 ppm solo",80%
same,control of fungal growth (reduction of symptoms on the leaf segment),"[3]; well 2-D(5), malonomicin 2.22 ppm solo",10%
same,control of fungal growth (reduction of symptoms on the leaf segment),"[3]; well 2-D(6), malonomicin 0.74 ppm solo",0%
"C=C/C(C)=C/[C@H](C)C(=O)C[C@H](O)CC1CC(=O)NC(=O)C1 [streptimidone, Streptimidone]",control of fungal growth,"[1]; well A(1), streptimidone 100 ppm solo",0%
same,control of fungal growth,"[1]; well B(1), streptimidone 50 ppm solo",0%
same,control of fungal growth,"[1]; well C(1), streptimidone 25 ppm solo",0%
same,control of fungal growth,"[1]; well D(1), streptimidone 12.5 ppm solo",0%
same,control of fungal growth,"[1]; well E(1), streptimidone 6.25 ppm solo",0%
same,control of fungal growth,"[1]; well F(1), streptimidone 3.125 ppm solo",0%
same,control of fungal growth,"[1]; well G(1), streptimidone 1.56 ppm solo",0%
same,control of fungal growth (reduction of symptoms on the leaf segment),"[2]; curative, well 1-A(1), streptimidone 200 ppm solo",20%
same,control of fungal growth (reduction of symptoms on the leaf segment),"[2]; curative, well 1-B(1), streptimidone 100 ppm solo",20%
same,control of fungal growth (reduction of symptoms on the leaf segment),"[2]; curative, well 1-C(1), streptimidone 50 ppm solo",25%
same,control of fungal growth (reduction of symptoms on the leaf segment),"[2]; curative, well 1-D(1), streptimidone 25 ppm solo",35%
same,control of fungal growth (reduction of symptoms on the leaf segment),"[2]; curative, well 2-B(1), streptimidone 6.25 ppm solo",0%
same,control of fungal growth (reduction of symptoms on the leaf segment),"[2]; curative, well 2-C(1), streptimidone 3.13 ppm solo",0%
same,control of fungal growth (reduction of symptoms on the leaf segment),[2]; in vivo,0%
same,control of fungal growth (reduction of symptoms on the leaf segment),"[3]; well 1-A(1), streptimidone 200 ppm solo",10%
same,control of fungal growth (reduction of symptoms on the leaf segment),"[3]; well 1-B(1), streptimidone 100 ppm solo",35%
same,control of fungal growth (reduction of symptoms on the leaf segment),"[3]; well 1-C(1), streptimidone 50 ppm solo",0%
same,control of fungal growth (reduction of symptoms on the leaf segment),"[3]; well 1-D(1), streptimidone 25 ppm solo",0%
same,control of fungal growth (reduction of symptoms on the leaf segment),"[3]; well 2-A(1), streptimidone 12.5 ppm solo",10%
same,control of fungal growth (reduction of symptoms on the leaf segment),"[3]; well 2-B(1), streptimidone 6.25 ppm solo",0%
same,control of fungal growth (reduction of symptoms on the leaf segment),"[3]; well 2-C(1), streptimidone 3.13 ppm solo",0%
